Assay results published in patent US20210333284A1, “METHODS AND MATERIALS FOR LARGE-SCALE ASSESSMENT OF LIGAND BINDING SELECTIVITY OF G-QUADRUPLEX RECOGNITION USING CUSTOM G4 MICROARRAYS” (Purdue Research Foundation, priority 2020, published 2021).

Columns and labels:
[1] = test system: G4 sequences on custom G4 microarray; assay: G4 microarray competition of unlabeled molecule with Cy5-PDS; assay type: binding, human
Source text: Whether the microarray platform could be used to reveal the G4-binding specificity of unlabeled molecules via a competition with Cy5-PDS binding was explored. Three example molecules, unlabeled PDS, TMPyP4 (a planar molecule that nonspecifically binds G4 structures^14), and DC-34 (a molecule that selectively binds the MYC G4^15) were examined. […] The binding of unlabeled DC-34 was examined (FIG. 4). There appear to be no features that are better-bound in the presence of DC-34. […] This is consistent with the observation that DC-34 binds the top and bottom surfaces of the G4 and makes specific contacts with purines in the tail sequences.^15 The general properties of features in which DC-34 reduced binding of Cy5-PDS (ratio of PDS/PDS+DC-34) were also examined.
Microarrays were preincubated with a 100 mM potassium chloride solution for 1 h at RT to induce G4 formation. Protein binding microarray experiments were then performed as previously described.^23 Microarrays were blocked with 4% nonfat dry milk in a potassium phosphate buffer before incubation with proteins or small molecules. Expressed proteins were blocked with 4% nonfat dry milk, ssDNA, and BSA. For the validation experiments, microarrays were also treated with 100 mM lithium chloride to inhibit G4 formation. For experiments examining dsDNA, single-stranded DNA probes were made double-stranded using a primer complementary to a 24-mer constant sequence following the method described previously.^23,24 Double stranding efficiency was monitored using 4% Cy3-dCTP.
Protein or molecule-bound microarrays were scanned with the G5761A SureScan Dx Microarray Scanner System (Agilent) to detect a Cy5 signal at two laser settings (30 and 100 PMT) to ensure signal intensities were below saturation. Spot intensities from microarray images were extracted using the Agilent Feature Extraction Software and are reported as raw fluorescence units. All binding assays were performed at least twice, with high agreement between replicates (R>0.8). Microarrays with the fewest number of saturated spots were used for further analysis. […] The measured array data (Design 3, PDS) and predictions were normalized using the following
Custom G4 microarrays have been designed that contain a total of 19,249 G4 DNA sequences [31, the entirety of disclosure of which, including the supplemental information, is incorporated herein by reference]. […] After washing to remove the unbound Cy5-PDS and BMVC, the fluorescence intensities of Cy5-PDS bound to DNA oligonucleotides were detected using a fluorescence scanner. The binding selectivity of BMVC to different G4 structures was assessed by measuring the relative fluorescence intensity reduction of Cy5-PDS as BMVC concentration increased. […]

[2] = biological target: various G4 structures (MYC, VEGF, human telomeric G4s); assay: Apparent dissociation constant by BMVC fluorescence; assay type: binding; details: 20 nM BMVC, 25° C.
Method: FIG. 11 Apparent dissociation constant (Kd, app) of BMVC binding to various G4 structures determined by BMVC fluorescence. Conditions: 20 nM BMVC, 25° C., pH 7, 100 mM K+ (100 mM Na+ for wtTel22).

[3] = test system: PDGF-A_Pu48, MYB, Bcl-2_P1G4 and Bcl2_55G G4 sequences; assay: G4 microarray competition with Cy5-PDS, other oncogene promoter G4s; assay type: binding, human
Method: Custom G4 microarrays have been designed that contain a total of 19,249 G4 DNA sequences [31, the entirety of disclosure of which, including the supplemental information, is incorporated herein by reference]. The G4 microarrays were created by covalently attaching thousands of unique G4-forming DNA 60-mers to a glass surface. Pyridostatin (PDS) is a known G4-interactive compound. […] To test the binding selectivity of BMVC, competition experiments using custom G4 microarrays were performed. The addition of potassium-containing solution to G4-forming oligonucleotides induced G4 formation. Subsequently, the microarrays were incubated with 1 μM Cy5-PDS in the absence or presence of 1 μM, 3 μM, or 10 μM of the unlabeled BMVC molecule. After washing to remove the unbound Cy5-PDS and BMVC, the fluorescence intensities of Cy5-PDS bound to DNA oligonucleotides were detected using a fluorescence scanner. The binding selectivity of BMVC to different G4 structures was assessed by measuring the relative fluorescence intensity reduction of Cy5-PDS as BMVC concentration increased.
To determine the G4-binding selectivity of BMVC, the BMVC binding to known G4 structures was examined, including 7 well-studied MYC promoter G4 sequences, 15 other oncogene promoter G4 sequences, and 3 human telomeric G4 sequences (TABLE 4). BMVC competes with the binding of Cy5-PDS to most G4 sequences in a dose-dependent manner as indicated by reduced fluorescence intensities (FIG. 8a).
DNA Microarray Binding Experiments DNA microarray experiments were performed and analyzed as described previously. Microarrays were preincubated with a pH 7.4 phosphate buffer solution with 100 mM potassium for 1 h at room temperature to induce G4 formation. […]
Data Processing and Analysis Molecule-bound microarrays were scanned with an Agilent G5761A SureScan Dx Microarray Scanner System to detect Cy5 signal at two laser settings (30 and 100 PMT). Spot intensities from microarray images were extracted using Agilent Feature Extraction Software and are reported as raw fluorescence intensities. […]

binding selectivity profile to different G4 sequences ([1]; 1 μM unlabeled ligand and 1 μM Cy5-PDS): more pronounced binding selectivity | apparent dissociation constant (Kd, app), ranking for MYC_14/23T G4 ([2]; pH 7, 100 mM K+): highest affinity | binding to parallel G4s (MYC, VEGF) vs human telomeric G4s by fluorescence ([2]; pH 7, 100 mM K+ (100 mM Na+ for wtTel22)): stronger than the human telomeric G4s | binding to Bcl2_55G ([3]; competition with Cy5-PDS): good binding | binding to Bcl-2_P1G4 ([3]; competition with Cy5-PDS, compared with Bcl2_55G): markedly weaker | binding to PDGF-A_Pu48 and MYB sequences relative to Cy5-PDS ([3]; equimolar competition): much weaker
Structure (SMILES): C[n+]1ccc(/C=C/c2ccc3[nH]c4ccc(/C=C/c5cc[n+](C)cc5)cc4c3c2)cc1.[I-].[I-] [BMVC, 3,6-Bis(1-methyl-4-vinylpyridinium) carbazole diiodide]
reduction of fluorescence intensity of Cy5-PDS ([1]; most known G4s, 1 μM Cy5-PDS, equimolar (1 μM) BMVC): 50%
